From US20250154108A1 (priority 2022, published 2025) come the findings set out here.

The series can be described thus: in vivo. Set-up: species or system SD rats. Conditions: male, SD, rat, plasma, po, 1 mg/kg; read-out: Bioavailability F.

The structures appear in SMILES notation.

With `C[C@H](NC1=CC(=O)C2(CCCC2)C(=O)N1)c1cc(F)ccc1F` [Compound of formula (I)], the bioavailability came out at 123%.
